According to patent US10800792B2, “Inhibitors of Bruton's tyrosine kinase and method of their use” (JANSSEN PHARMACEUTICA NV, priority 2015, dated 2020):

Biological target: unphosphorylated-BTK kinase domain (UP-BTK), GST-tagged human BTK (389-659aa) (Homo sapiens (Human), UniProt Q06187)
Assay: BTK kinase Lanthascreen binding assay
Conditions: Lanthascreen tracer competition, 60 minutes incubation; pIC50 = negative log of the IC50 in molar
Procedure, shortened: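 Values are pIC50, i.e. negative log of IC50 in molar, derived from concentration–response fitting. Each compound competes with a fluorescently labelled tracer for the unphosphorylated kinase domain.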

unphosphorylated-BTK kinase domain (UP-BTK), GST-tagged human BTK (389-659aa), sequence (Q06187 389-659): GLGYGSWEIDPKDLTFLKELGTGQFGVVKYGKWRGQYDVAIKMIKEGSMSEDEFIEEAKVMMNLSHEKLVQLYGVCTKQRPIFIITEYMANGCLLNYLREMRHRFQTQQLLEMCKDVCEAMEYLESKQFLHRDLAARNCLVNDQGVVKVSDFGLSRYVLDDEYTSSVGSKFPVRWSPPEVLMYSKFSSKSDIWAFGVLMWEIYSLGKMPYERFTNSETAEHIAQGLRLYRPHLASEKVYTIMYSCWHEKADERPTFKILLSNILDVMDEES

Question: Which “BTK_I_binding pIC50” value does the source give for Cc1cc(Oc2cccc(COc3ccccc3C#N)c2)ccc1N1C(=O)Nc2c(C(=O)N[C@@H]3CCCN(C(=O)/C(C#N)=C/C4CC4)C3)sc3nccc1c23 [Example 861, (R,E)-N-(1-(2-Cyano-3-cyclopropylacryloyl)piperidin-3-yl)-5-(4-(3-((2-cyanophenoxy)methyl)phenoxy)-2-methylphenyl)-4-oxo-4,5-dihydro-3H-1-thia-3,5,8-triazaacenaphthylene-2-carboxamide] here?
Answer: 7.3

Question: C=CC(=O)N1CCC[C@@H](NC(=O)c2sc3nccc4c3c2NC(=O)N4c2ccnc(C3CCCC3)c2)C1 [Example 692, (R)—N-(1-Acryloylpiperidin-3-yl)-5-(2-cyclopentylpyridin-4-yl)-4-oxo-4,5-dihydro-3H-1-thia-3,5,8-triazaacenaphthylene-2-carboxamide] was tested. Which “BTK_I_binding pIC50” value did it give?
Answer: 8.0

Question: How did the “BTK_I_binding pIC50” value turn out when Cc1cc(Oc2ccccc2)ccc1N1C(=O)Nc2c(C(=O)NC3CCCN(C)C3)sc3nccc1c23 (stereo not shown) [Example 898, 5-(2-Methyl-4-phenoxyphenyl)-N-(1-methylpiperidin-3-yl)-4-oxo-4,5-dihydro-3H-1-thia-3,5,8-triazaacenaphthylene-2-carboxamide] was run?
Answer: 6.8

Question: Which “BTK_I_binding pIC50” value does the source give for Cc1cc(Oc2ccccc2)ccc1N1C(=O)Nc2c(NC(=O)C3CCCN(C#N)C3)sc3nccc1c23 (stereo not shown) [Example 802, 1-Cyano-N-(5-(2-methyl-4-phenoxyphenyl)-4-oxo-4,5-dihydro-3H-1-thia-3,5,8-triazaacenaphthylen-2-yl)piperidine-3-carboxamide] here?
Answer: 6.1

Question: CC(C)Cc1ccc(N2C(=O)Nc3c(C(=O)N[C@@H]4CCCNC4)sc4nccc2c34)cc1 [Example 754, (R)-5-(4-Isobutylphenyl)-4-oxo-N-(piperidin-3-yl)-4,5-dihydro-3H-1-thia-3,5,8-triazaacenaphthylene-2-carboxamide] was tested. Which “BTK_I_binding pIC50” value did it give?
Answer: <6

Question: How did the “BTK_I_binding pIC50” value turn out when C=CC(=O)N1CCC[C@@H](NC(=O)c2sc3nccc4c3c2NC(=O)N4c2ccc(CC(C)C)nc2C)C1 [Example 764, (R)—N-(1-Acryloylpiperidin-3-yl)-5-(6-isobutyl-2-methylpyridin-3-yl)-4-oxo-4,5-dihydro-3H-1-thia-3,5,8-triazaacenaphthylene-2-carboxamide] was run?
Answer: 6.3

Question: C=CC(=O)N1CC[C@@H](NC(=O)c2sc3nccc4c3c2NC(=O)N4c2ccc(Oc3cccc(COc4ccccc4C#N)c3)cc2C)C1 [Example 847, (R)—N-(1-Acryloylpyrrolidin-3-yl)-5-(4-(3-((2-cyanophenoxy)methyl)phenoxy)-2-methylphenyl)-4-oxo-4,5-dihydro-3H-1-thia-3,5,8-triazaacenaphthylene-2-carboxamide] was tested. Which “BTK_I_binding pIC50” value did it give?
Answer: 7.6

Same assay, conditions: Lanthascreen tracer competition, 60 minutes incubation; pIC50 = negative log of the IC50 in molar; read-out: BTK_I_binding pIC50 (converted)

Question: With CC(C)(C)OC(=O)N1CC[C@@H](NC(=O)c2sc3nccc4c3c2NC(=O)N4c2ccc(Oc3ccccc3)cc2)[C@H](O)C1 (relative stereo) [Example 617, trans-tert-Butyl 3-hydroxy-4-(4-oxo-5-(4-phenoxyphenyl)-4,5-dihydro-3H-1-thia-3,5,8-triazaacenaphthylene-2-carboxamido)piperidine-1-carboxylate] as the compound, how does the IC50 read?
Answer: 1000 nM

Question: O=C(N[C@@H]1CCNC[C@@H]1O)c1sc2nccc3c2c1NC(=O)N3c1ccc(Oc2ccccc2)cc1 (relative stereo) [Example 659, N-(cis-3-Hydroxypiperidin-4-yl)-4-oxo-5-(4-phenoxyphenyl)-4,5-dihydro-3H-1-thia-3,5,8-triazaacenaphthylene-2-carboxamide] was tested. Which IC50 did it give?
Answer: 251 nM

Same assay, conditions: pIC50 = negative log of the IC50 in molar; 60 minutes incubation, 50 nM Tracer 236

Question: Cc1cc(Oc2ccccc2)ccc1N1C(=O)Nc2c(C(=O)N[C@@H]3C[C@@H](F)CN(C)C3)sc3nccc1c23 [Example 160, N-((3R,5R)-5-Fluoro-1-methylpiperidin-3-yl)-5-(2-methyl-4-phenoxyphenyl)-4-oxo-4,5-dihydro-3H-1-thia-3,5,8-triazaacenaphthylene-2-carboxamide] was tested. Which “BTK_I_binding pIC50” value did it give?
Answer: 6.6

Question: Which “BTK_I_binding pIC50” value does the source give for Cc1cc(Oc2ccccc2)ccc1N1C(=O)Nc2c(C(=O)N[C@@H]3CCCN(C(=O)/C(C#N)=C/C4(C)COC4)C3)sc3nccc1c23 [Example 21, (R,E)-N-(1-(2-cyano-3-(3-methyloxetan-3-yl)acryloyl)piperidin-3-yl)-5-(2-methyl-4-phenoxyphenyl)-4-oxo-4,5-dihydro-3H-1-thia-3,5,8-triazaacenaphthylene-2-carboxamide] here?
Answer: 7.7

Question: With Cc1cc(Oc2ccccc2)ccc1N1C(=O)Nc2c(C(=O)N[C@@H]3CCOC3)sc3nccc1c23 [Example 108, (R)-5-(2-Methyl-4-phenoxyphenyl)-4-oxo-N-(tetrahydrofuran-3-yl)-4,5-dihydro-3H-1-thia-3,5,8-triazaacenaphthylene-2-carboxamide] as the compound, how does the “BTK_I_binding pIC50” value read?
Answer: 7.5

Question: For C=CC(=O)N1CCC[C@@H](NC(=O)c2sc3nccc4c3c2NC(=O)N4c2ccc(OC3CCOCC3)cc2C)C1 [Example 65, (R)—N-(1-Acryloylpiperidin-3-yl)-5-(2-methyl-4-((tetrahydro-2H-pyran-4-yl)oxy)phenyl)-4-oxo-4,5-dihydro-3H-1-thia-3,5,8-triazaacenaphthylene-2-carboxamide], which “BTK_I_binding pIC50” value is on record?
Answer: 6.6

Question: CC(C)=CC(=O)N1CCC[C@@H](NC(=O)c2sc3nccc4c3c2NC(=O)N4c2ccc(Oc3ccccc3)cc2C)C1 [Example 225, (R)-5-(2-Methyl-4-phenoxyphenyl)-N-(1-(3-methylbut-2-enoyl)piperidin-3-yl)-4-oxo-4,5-dihydro-3H-1-thia-3,5,8-triazaacenaphthylene-2-carboxamide] was tested. Which “BTK_I_binding pIC50” value did it give?
Answer: 6.7

Same assay, conditions: pIC50 = negative log of the IC50 in molar; 60 minutes incubation, 50 nM Tracer 236; read-out: BTK_I_binding pIC50 (converted)

Question: For C=CC(=O)N1CCC[C@@H](NC(=O)c2sc3nccc4c3c2NC(=O)N4c2ccc(Oc3ccccc3)cc2F)C1 [Example 10, (R)—N-(1-Acryloylpiperidin-3-yl)-5-(2-fluoro-4-phenoxyphenyl)-4-oxo-4,5-dihydro-3H-1-thia-3,5,8-triazaacenaphthylene-2-carboxamide], which IC50 is on record?
Answer: 7.94 nM

Same assay, conditions: unphosphorylated-BTK kinase domain, 50 nM Tracer 236, 60 minutes; pIC50 = negative log of the IC50 in molar

Question: Which “BTK_I_binding pIC50” value does the source give for CN(C)CC(=O)N1CCC[C@@H](NC(=O)c2sc3nccc4c3c2NC(=O)N4c2ccc(Oc3ccccc3)cc2)C1 [Example 424, (R)—N-(1-(2-(Dimethylamino)acetyl)piperidin-3-yl)-4-oxo-5-(4-phenoxyphenyl)-4,5-dihydro-3H-1-thia-3,5,8-triazaacenaphthylene-2-carboxamide] here?
Answer: 7.2

Question: With CNCC(=O)N1CCC[C@@H](NC(=O)c2sc3nccc4c3c2NC(=O)N4c2ccc(Oc3ccccc3)cc2)C1 [Example 546, (R)—N-(1-(2-(Methylamino)acetyl)piperidin-3-yl)-4-oxo-5-(4-phenoxyphenyl)-4,5-dihydro-3H-1-thia-3,5,8-triazaacenaphthylene-2-carboxamide] as the compound, how does the “BTK_I_binding pIC50” value read?
Answer: 7.4

Question: With C=CC(=O)N1CC(NC(=O)c2sc3nccc4c3c2NC(=O)N4c2ccc(Oc3ccccc3)cc2C)C1 [Example 496, N-(1-Acryloylazetidin-3-yl)-5-(*S)-(2-methyl-4-phenoxyphenyl)-4-oxo-4,5-dihydro-3H-1-thia-3,5,8-triazaacenaphthylene-2-carboxamide] as the compound, how does the “BTK_I_binding pIC50” value read?
Answer: 7.4

Question: C=CC(=O)N1CC[C@@H](NC(=O)c2sc3nccc4c3c2NC(=O)N4c2ccnc(-c3ccccc3)c2)C1 [Example 567, (R)—N-(1-Acryloylpyrrolidin-3-yl)-4-oxo-5-(2-phenylpyridin-4-yl)-4,5-dihydro-3H-1-thia-3,5,8-triazaacenaphthylene-2-carboxamide] was tested. Which “BTK_I_binding pIC50” value did it give?
Answer: 7.4

Question: Which “BTK_I_binding pIC50” value does the source give for Cc1cc(Oc2ccccc2)ccc1N1C(=O)Nc2c(C(=O)N[C@@H]3CCCN(C(=O)CCO)C3)sc3nccc1c23 (single isomer, unassigned) [Example 318, (R)—N-(1-(3-Hydroxypropanoyl)piperidin-3-yl)-5-(*R)-(2-methyl-4-phenoxyphenyl)-4-oxo-4,5-dihydro-3H-1-thia-3,5,8-triazaacenaphthylene-2-carboxamide] here?
Answer: 5.8

Question: With CN(C)CC(=O)N1CCC[C@@H](NC(=O)c2sc3nccc4c3c2NC(=O)N4c2ccc(Oc3ccccc3)c(Cl)c2)C1 [Example 572, (R)-5-(3-Chloro-4-phenoxyphenyl)-N-(1-(2-(dimethylamino)acetyl)piperidin-3-yl)-4-oxo-4,5-dihydro-3H-1-thia-3,5,8-triazaacenaphthylene-2-carboxamide] as the compound, how does the “BTK_I_binding pIC50” value read?
Answer: 7.1

Question: How did the “BTK_I_binding pIC50” value turn out when C=CC(=O)N1CC[C@@H](NC(=O)c2sc3nccc4c3c2NC(=O)N4c2cccc(-c3ccccc3)c2)C1 [Example 531, (R)-5-([1,1′-Biphenyl]-3-yl)-N-(1-acryloylpyrrolidin-3-yl)-4-oxo-4,5-dihydro-3H-1-thia-3,5,8-triazaacenaphthylene-2-carboxamide] was run?
Answer: 7.5

Question: How did the “BTK_I_binding pIC50” value turn out when C=CC(=O)N1CCC[C@@H](NC(=O)c2sc3nccc4c3c2NC(=O)N4c2cccc(OC3CCCCC3)c2)C1 [Example 560, (R)—N-(1-Acryloylpiperidin-3-yl)-5-(3-(cyclohexyloxy)phenyl)-4-oxo-4,5-dihydro-3H-1-thia-3,5,8-triazaacenaphthylene-2-carboxamide] was run?
Answer: 7.6

Same assay, conditions: unphosphorylated-BTK kinase domain, 60 minutes incubation, 50 nM Tracer 236; pIC50 = negative log of the IC50 in molar

Question: COc1ccccc1Oc1ccc(N2C(=O)Nc3c(C(=O)NC4CCN(C)CC4)sc4nccc2c34)c(C)c1 [Example 918, 5-(4-(2-Methoxyphenoxy)-2-methylphenyl)-N-(1-methylpiperidin-4-yl)-4-oxo-4,5-dihydro-3H-1-thia-3,5,8-triazaacenaphthylene-2-carboxamide] was tested. Which “BTK_I_binding pIC50” value did it give?
Answer: 6.4

Question: O=C(N[C@@H]1CCCNC1)c1sc2nccc3c2c1NC(=O)N3c1ccc(F)cc1 [Example 953, (R)-5-(4-Fluorophenyl)-4-oxo-N-(piperidin-3-yl)-4,5-dihydro-3H-1-thia-3,5,8-triazaacenaphthylene-2-carboxamide] was tested. Which “BTK_I_binding pIC50” value did it give?
Answer: 5.1
